Source: patent US7341751B2, “Eggplant extract for medical treatments” (priority 2006, dated 2008)

Assays:
[1] = tested on: TNF-alpha secretion by peripheral blood mononuclear cells (PBMC); assay: LPS-stimulated PBMC cytokine secretion, TNF-alpha ELISA; format: cell-based, human
Excerpt: (§1) FIG. 1 and the following two tables show data from an in vitro experiment using PBMC from a healthy donor who provided peripheral blood mononuclear cells (PBMC) for this experiment. (PBMC are isolated from whole blood by gradient centrifugation. PBMC contain mostly lymphocytes and monocytes (neutrophils having been excluded by the separation procedure). They are commonly used to assess immune functions in vitro.) The PBMC were stimulated with LPS. (LPS is lipopolysaccharide, a component of bacterial cell wall, which is commonly used as an antigen non-specific stimulator (also called a mitogen) of immune cell proliferation, synthesis and secretion. It is commonly used in vitro to simulate an immune response in vivo. Chemicals which block the LPS stimulated synthesis or secretion of pro-inflammatory mediators by immune cells (primarily lymphocytes and monocytes) may have similar activity in vivo and therefore may have anti-inflammatory activity in vivo.) After 24 to 48 hours, the supernatant from each culture well was collected and assayed for the pro-inflammatory mediator noted (tumer necrosis factor (TNF)-alpha or IL-1-beta using a modified enzyme linked immunosorbent assay (ELISA). […]

[2] = tested on: IL-1-beta secretion by peripheral blood mononuclear cells (PBMC); assay: LPS-stimulated PBMC cytokine secretion, IL-1-beta ELISA; format: cell-based, human
Excerpt: as §1

[3] = eggplant extract plus iron at 0.25%, percent of maximal secretion

With `C[C@]12CCC(=O)C=C1CC[C@@H]1[C@@H]2[C@@H](O)C[C@@]2(C)[C@H]1CC[C@]2(O)C(=O)CO` [Hydrocortisone] the “Mean TNF-alpha release” value ([1]; eggplant extract + iron at 0.25%, supernatant after 24 to 48 hours, +LPS no drug 11753.0) was 298.8 picograms of cytokine per 1x10^6 cells, the “Mean TNF-alpha released, percent of +LPS (no drug)” value [1, 3] was 3% and the “Mean IL-1 beta release” value ([2]; eggplant extract + iron at 0.25%, supernatant after 24 to 48 hours, +LPS no drug 3507.8) was 1757.8 picograms of cytokine per 1x10^6 cells. For the same molecule, the “Mean IL-1-beta released, percent of +LPS (no drug)” value [2, 3] was 50%.
